Source: US8546377B2 (AbbVie Inc., priority 2009, dated 2013)
Like-named read-outs stand apart in the source and are kept apart here.

Assays:
[1] = target: T1, 5HT2B receptors (Homo sapiens, UniProt P41595); test: Human 5-HT2B functional assay in CHO-K1 cells (calcium flux, FLIPR); format: cell-based
T1 construct: expressed in transfected cells; host or cells: CHO-K1 cells
Description: (§1) (iii) Human 5-HT2C and 5-HT2B Functional Assay in CHO-K1 Cells
(§2) CHO-K1 cells over-expressing 5HT2C or 5HT2B receptors were grown in 1272 cm^2 flasks to 70-80% confluency in UltraCHO media supplemented with 1% dialyzed fetal bovine serum (FBS), 250 μg/mL zeocin, 100 U/mL penicillin/streptomycin, and 400 μg/mL geneticin. The cells were dissociated from the flasks using 0.05% trypsin, resuspended in freezing media and stored in liquid nitrogen until use. Calcium flux experiments were done using frozen cells. The cells were diluted in media containing 1% dialyzed FBS and 100 U/mL penicillin/streptomycin and plated into 384-well poly-D-Lysine coated plates (15,000 cells/well). Then the plates were incubated overnight in a cell incubator at 37° C., 5% CO2. On the next day, the growth media was replaced with media without FBS and further incubated overnight. On day three, the changes in intracellular Ca^2+ were determined using calcium sensitive fluorescent dye, Ca4 (MDS Analytical Technologies, Sunnyvale, Calif.) by loading 15 μL of diluted dye with 2.5 mM probenecid into the cells containing media and incubated at room temperature for 60 minutes in dark.
(§3) Fluorescence measurements were read at 25° C. at an excitation wavelength of 480 nm and an emission wavelength of 530 nm in FLIPR (MDS). Baseline fluorescence was measured for the first 10 seconds and then 15 μL of 4× concentrations of serotonin/test compounds was added to the cell plate. The fluorescence intensity was captured every second for the first 1 minute followed by every 5 seconds for an additional 2 minutes. The increase in fluorescent response was determined and was normalized to the response of serotonin. The concentration response of compounds was done from a starting concentration of 10 μM, 1:10 dilution across 6 wells with a final dimethyl sulfoxide concentration of 0.2% and was fitted using a 4-parameter logistic equation. The concentration at which a compound exerts half its maximal effect was named as ‘effective concentration 50’ or ‘EC50’.
(§4) Emax is the maximum functional response or efficacy expressed as a percentage relative to the effect of serotonin.

[2] = target: T2, 5HT2C receptors (Homo sapiens, UniProt P28335); test: Human 5-HT2C functional assay in CHO-K1 cells (calcium flux, FLIPR); format: cell-based; design: expressed in transfected cells; host or cells: CHO-K1 cells; details: for Emax: percentage relative to the effect of serotonin
T2 sequence (P28335 33-458): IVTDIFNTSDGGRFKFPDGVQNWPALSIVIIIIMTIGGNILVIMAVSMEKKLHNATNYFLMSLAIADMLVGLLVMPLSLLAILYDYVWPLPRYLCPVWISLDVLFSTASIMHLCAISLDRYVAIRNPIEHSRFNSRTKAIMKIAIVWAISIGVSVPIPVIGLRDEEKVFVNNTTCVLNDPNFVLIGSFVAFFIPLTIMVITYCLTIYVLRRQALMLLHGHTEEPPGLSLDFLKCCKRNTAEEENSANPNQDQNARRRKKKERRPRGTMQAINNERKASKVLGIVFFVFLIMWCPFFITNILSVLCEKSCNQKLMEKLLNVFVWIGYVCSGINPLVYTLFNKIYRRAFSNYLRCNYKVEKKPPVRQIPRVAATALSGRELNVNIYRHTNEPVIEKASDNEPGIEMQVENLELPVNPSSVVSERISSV
Description: as §1, §2, §3, §4

[3] = CHO-K1 cells over-expressing 5HT2B, calcium flux, read-out: EC50 (μM), 5-HT2B Agonist Activity
[4] = CHO-K1, read-out: Emax (%), 5-HT2c Agonist Activity, CHO-K1 cells
[5] = CHO-K1 cells over-expressing 5HT2C, calcium flux, read-out: EC50 (μM), 5-HT2c Agonist Activity
[6] = CHO-K1, read-out: Emax (%), 5-HT2B Agonist Activity
[7] = CHO-K1 cells, read-out: Emax (%), 5-HT2c Agonist Activity
[8] = CHO-K1 cells, percentage relative to the effect of serotonin, read-out: Emax (%), 5-HT2B Agonist Activity

T1 sequence (P41595 whole entry): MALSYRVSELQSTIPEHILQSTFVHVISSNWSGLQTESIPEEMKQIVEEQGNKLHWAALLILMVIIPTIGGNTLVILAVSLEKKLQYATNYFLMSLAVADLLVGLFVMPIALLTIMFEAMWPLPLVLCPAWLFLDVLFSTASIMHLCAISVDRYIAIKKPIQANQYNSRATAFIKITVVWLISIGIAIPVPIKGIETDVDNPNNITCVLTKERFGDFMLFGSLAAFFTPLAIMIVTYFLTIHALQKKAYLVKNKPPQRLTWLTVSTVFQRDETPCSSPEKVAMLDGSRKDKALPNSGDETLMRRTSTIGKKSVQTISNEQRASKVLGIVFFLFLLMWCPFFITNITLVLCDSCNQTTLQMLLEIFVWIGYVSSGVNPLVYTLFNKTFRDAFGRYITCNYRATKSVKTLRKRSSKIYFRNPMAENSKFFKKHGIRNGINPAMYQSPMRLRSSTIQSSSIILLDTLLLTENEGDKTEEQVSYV

Row | EC50 [1, 3] | EC50 [2, 5] | Emax [2, 7] | Emax [1, 8] | Compound | Emax [2, 4] | EC50 [1] | Emax [1, 6] | EC50 [2]
1 | > 10 µM | 0.05 µM | > 80% | – | O=C1CC2CNCCN2c2cc(C3CC3)ccc2N1 (stereo not drawn) [Example 52, 10-cyclopropyl-1,2,3,4,4a,5-hexahydropyrazino[1,2-a][1,5]benzodiazepin-6(7H)-one] | – | – | – | –
2 | > 10 µM | 1 µM | 110% | – | O=C1CC2CNCCN2c2cc(-c3cnn(Cc4ccccc4)c3)ccc2N1 (stereo not drawn) [Example 56, 10-(1-benzyl-1H-pyrazol-4-yl)-1,2,3,4,4a,5-hexahydropyrazino[1,2-a][1,5]benzodiazepin-6(7H)-one] | – | – | – | –
3 | > 10 µM | 0.2 µM | 110% | – | COc1ccc(-c2ccc3c(c2)N2CCNCC2CC(=O)N3)cc1 (stereo not drawn) [Example 58, 10-(4-methoxyphenyl)-1,2,3,4,4a,5-hexahydropyrazino[1,2-a][1,5]benzodiazepin-6(7H)-one] | – | – | – | –
4 | > 10 µM | 0.04 µM | > 120% | – | O=C1CC2CNCCN2c2cc(-c3cccc(-c4ccccc4)c3)ccc2N1 (stereo not drawn) [Example 59, 10-(biphenyl-3-yl)-1,2,3,4,4a,5-hexahydropyrazino[1,2-a][1,5]benzodiazepin-6(7H)-one] | – | – | – | –
5 | 3 µM | 0.4 µM | > 120% | 50% | Cn1cc(-c2ccc3c(c2)N2CCNCC2CC(=O)N3)cn1 (stereo not drawn) [Example 60, 10-(1-methyl-1H-pyrazol-4-yl)-1,2,3,4,4a,5-hexahydropyrazino[1,2-a][1,5]benzodiazepin-6(7H)-one] | – | – | – | –
6 | > 10 µM | 0.1 µM | > 120% | – | O=C1CC2CNCCN2c2cc(-c3cccc(F)c3)ccc2N1 (stereo not drawn) [Example 61, 10-(3-fluorophenyl)-1,2,3,4,4a,5-hexahydropyrazino[1,2-a][1,5]benzodiazepin-6(7H)-one] | – | – | – | –
7 | > 10 µM | 0.09 µM | 110% | – | COc1ccccc1-c1ccc2c(c1)N1CCNCC1CC(=O)N2 (stereo not drawn) [Example 63, 10-(2-methoxyphenyl)-1,2,3,4,4a,5-hexahydropyrazino[1,2-a][1,5]benzodiazepin-6(7H)-one] | – | – | – | –
8 | 1 µM | 0.03 µM | 110% | 15% | O=C1CC2CNCCN2c2cc(-c3ccccc3-c3ccccc3)ccc2N1 (stereo not drawn) [Example 64, 10-(biphenyl-2-yl)-1,2,3,4,4a,5-hexahydropyrazino[1,2-a][1,5]benzodiazepin-6(7H)-one] | – | – | – | –
9 | > 10 µM | 0.05 µM | > 120% | – | COc1cccc(-c2ccc3c(c2)N2CCNCC2CC(=O)N3)c1 (stereo not drawn) [Example 65, 10-(3-methoxyphenyl)-1,2,3,4,4a,5-hexahydropyrazino[1,2-a][1,5]benzodiazepin-6(7H)-one] | – | – | – | –
10 | > 10 µM | 0.09 µM | 100% | – | O=C1CC2CNCCN2c2cc(-c3csc4ccccc34)ccc2N1 (stereo not drawn) [Example 66, 10-(1-benzothiophen-3-yl)-1,2,3,4,4a,5-hexahydropyrazino[1,2-a][1,5]benzodiazepin-6(7H)-one] | – | – | – | –
11 | > 10 µM | 0.2 µM | 110% | – | O=C1CC2CNCCN2c2cc(-c3cccc4ccccc34)ccc2N1 (stereo not drawn) [Example 67, 10-(1-naphthyl)-1,2,3,4,4a,5-hexahydropyrazino[1,2-a][1,5]benzodiazepin-6(7H)-one] | – | – | – | –
12 | 0.09 µM | 0.02 µM | 110% | 80% | O=C1CC2CNCCN2c2cc(-c3ccoc3)ccc2N1 (stereo not drawn) [Example 69, 10-(3-furyl)-1,2,3,4,4a,5-hexahydropyrazino[1,2-a][1,5]benzodiazepin-6(7H)-one] | – | – | – | –
13 | > 10 µM | 0.06 µM | > 120% | – | O=C1CC2CNCCN2c2cc(-c3ccccc3F)ccc2N1 (stereo not drawn) [Example 70, 10-(2-fluorophenyl)-1,2,3,4,4a,5-hexahydropyrazino[1,2-a][1,5]benzodiazepin-6(7H)-one] | – | – | – | –
14 | – | 0.004 µM | 88% | – | O=C1CC2CNCCN2c2cc(/C=C/c3ccccc3F)ccc2N1 (stereo not drawn) [Example 141, 10-[(E)-2-(2-fluorophenyl)vinyl]-1,2,3,4,4a,5-hexahydropyrazino[1,2-a][1,5]benzodiazepin-6(7H)-one] | – | – | – | –

The next lines start with the compound.

Row | Compound | EC50 [1, 3] | EC50 [2, 5] | Emax [2, 7] | Emax [1, 8] | Emax [2, 4] | EC50 [1] | Emax [1, 6] | EC50 [2]
15 | O=C1NC[C@@H]2CNCC[C@@H]2c2ccccc21 (relative stereo) [Example 180, cis-1,2,3,4,4a,5,6,11b-octahydro-7H-pyrido[3,4-d][2]benzazepin-7-one] | > 10 µM | 0.2 µM | – | – | > 120% | – | – | –
16 | C[C@@H]1C[C@H]2CNCCN2c2ccccc2O1 (single isomer, unassigned) [Example 252] | – | – | – | – | 105% | 0.06 µM | 40% | 0.006 µM
17 | C[C@H]1C[C@H]2CNCCN2c2ccccc2O1 (single isomer, unassigned) [Example 253] | – | – | – | – | 100% | > 10 µM | – | 0.09 µM
18 | Cc1ccc2c(c1)NC(=O)CC1CNCCN21 (stereo not drawn) [Example 49, 9-methyl-1,2,3,4,4a,5-hexahydropyrazino[1,2-a][1,5]benzodiazepin-6(7H)-one] | – | – | – | – | 100% | > 10 µM | – | 0.06 µM
19 | CCOC(=O)c1ccc2c(c1)N1CCNCC1CC(=O)N2 (stereo not drawn) [Example 50, ethyl 6-oxo-1,2,3,4,4a,5,6,7-octahydropyrazino[1,2-a][1,5]-benzodiazepine-10-carboxylate] | > 10 µM | 0.2 µM | 80% | – | – | – | – | –
20 | O=C1CC2CNCCN2c2ccc(Cl)cc2N1 (stereo not drawn) [Example 51, 9-chloro-1,2,3,4,4a,5-hexahydropyrazino[1,2-a][1,5]benzodiazepin-6(7H)-one] | – | – | – | – | 90% | > 10 µM | – | 0.07 µM
21 | Cc1cccc2c1N1CCNCC1CC(=O)N2 (stereo not drawn) [Example 53, 11-methyl-1,2,3,4,4a,5-hexahydropyrazino[1,2-a][1,5]benzodiazepin-6(7H)-one] | – | – | – | – | > 120% | 3 µM | 60% | 0.006 µM
22 | Brc1ccc2c(c1)NCC[C@H]1CNCCN21 [Example 54, (4aS)-9-bromo-1,2,3,4,4a,5,6,7-octahydropyrazino[1,2-a][1,5]benzodiazepine] | – | – | – | – | 110% | > 10 µM | – | 0.07 µM
23 | O=C1C[C@H]2CNCCN2c2ccc(Cl)cc2N1 [Example 55, (4aS)-9-chloro-1,2,3,4,4a,5-hexahydropyrazino[1,2-a][1,5]benzodiazepin-6(7H)-one] | – | – | – | – | > 120% | > 10 µM | – | 0.02 µM
24 | O=C1CC2CNCCN2c2cc(-c3ccc4ccccc4c3)ccc2N1 (stereo not drawn) [Example 57, 10-(2-naphthyl)-1,2,3,4,4a,5-hexahydropyrazino[1,2-a][1,5]benzodiazepin-6(7H)-one] | > 10 µM | 0.9 µM | 100% | – | – | – | – | –
25 | O=C1CC2CNCCN2c2cc(-c3cnc4ccccc4c3)ccc2N1 (stereo not drawn) [Example 62, 10-(quinolin-3-yl)-1,2,3,4,4a,5-hexahydropyrazino[1,2-a][1,5]benzodiazepin-6(7H)-one] | 0.9 µM | 0.06 µM | > 120% | 60% | – | – | – | –
26 | O=C1CC2CNCCN2c2cc(-c3cccc4[nH]ccc34)ccc2N1 (stereo not drawn) [Example 68, 10-(1H-indol-4-yl)-1,2,3,4,4a,5-hexahydropyrazino[1,2-a][1,5]benzodiazepin-6(7H)-one] | > 10 µM | 0.09 µM | > 120% | – | – | – | – | –
27 | O=C1CC2CNCCN2c2cc(-c3ccccn3)ccc2N1 (stereo not drawn) [Example 71, 10-(pyridin-2-yl)-1,2,3,4,4a,5-hexahydropyrazino[1,2-a][1,5]benzodiazepin-6(7H)-one] | – | – | – | – | > 120% | 0.02 µM | 100% | 0.002 µM
